Source: patent US9850542B2, “Gene signature to predict homologous recombination (HR) deficient cancer” (Board of Regents, The University of Texas System, priority 2013, dated 2017)

Assays:
HCC1937 = assay: Drug combination study by MTT assay (combination index, CompuSyn); assay type: cell-based, human
Procedure: Cell Proliferation Assay. Cell proliferation was measured by MTT (3-(4,5-dimethylthiazol-2-yl)-2,5-diphenyltetrazolium bromide; Sigma) reduction. To test the cell proliferation rate, 500-1×10^4 cells/well were seeded in a 96-well plate in a total volume of 100 μL in triplicate in each experiment. The next day, cells were treated with indicated concentrations of drugs. Five days later, 20 μL of MTT substrate (2 mg/mL) was added to each well and incubated with cells for 3 hr. Then the culture medium was removed, and 100 μL of dimethyl sulfoxide was added. Plates were read at 490 nm and 650 nm (background) in a microplate reader (Molecular Devices). After subtraction of background, the cell viability was calculated as fold change relative to control cells. The OD values were analyzed with Graphpad Prism 6.0 software. Each value is relative to the value in the cells treated with vehicle control. Results are shown as mean±SEM from three independent experiments.
Drug Combination Studies. […] CI<1 indicated synergism, and CI=1 and CI>1 indicated additive and antagonism, respectively.

[1] = test system: BRCA1/2 mutation carriers with recurrent ovarian cancer; conditions: phase II; cited from earlier work
MCF-10A cells = assay: Colony formation assay in MCF-10A knockdown cell lines; assay type: cell-based, human
Procedure: FIGS. 3A-C. Loss of PTEN Reverses HRD and Confers PARP Inhibitor Resistance to BRCA1-Depleted Cells through Over-expression of TTK. (A) Modified HR repair assay was performed in MCF-10A cells by transfecting cells with DRGFP DSB substrate plasmid and I-SceI plasmid through electroporation, followed by analysis of GFP-positive cells by flow cytometry 48 to 72 hours later. Each value is relative to the percentage of GFP-positive cells in I-SceI-transfected control cells. Results are show as mean±SD from three independent experiments. Student's t-test was performed from results of three independent experiments. (B) Cells were seeded at a very low density and treated with indicated concentrations of olaparib for 10 to 15 days to allow colony formation. The rate of cell survival in response to olaparib was determined by colony formation assay. Each value was relative to control cells without treatment and represents the mean±SD from three independent experiments. […] (C) Quantitative analysis of HR repair assay in cells transfected with TTK plasmids or the indicated siRNAs. Each value is relative to the percentage of GFP-positive cells in I-SceI-transfected control cells. Results are shown as mean±SD from three independent experiments. […] BRCA1 SMARTpool siRNA was used as a positive control.
FIGS. 11A-B. The HRD Gene Signature Predicts HR-deficiency and Sensitivity to PARP Inhibitors in Cancer Cells. (A) Cells were seeded in a very low density and treated with indicated concentrations of PARP inhibitor olaparib for 10-15 days to allow colony formation. The rate of cell survival was determined by colony-formation assay. Colonies were stained with 0.25% crystal violet/25% methanol and counted both manually and digitally using ImageJ software. […]
Colony Forming Assay. […] Colonies were counted manually (colonies containing 50 or more cells were counted) or digitally using ImageJ software with customized parameters optimized based on three preliminary manual counts or blindly chosen. […]

[2] = test system: BRCA-negative patients with advanced-stage triple-negative breast cancer; conditions: 15 BRCA-negative patients, advanced-stage TNBC; cited from earlier work
[3] = test system: cancer cell lines with and without the HRD gene signature; assay: Colony formation and MTT assay in cancer cell lines with intact or defective HR; assay type: cell-based, human; conditions: prostate, renal, lung, ovarian, breast cancer lines; colony formation, MTT
Procedure: FIGS. 2A-D. The HRD Gene Signature Predicts Sensitivity to PARP Inhibitors in Cancer Cells. (A) Cell lines with intact HR (I) and defective HR (D) were selected for five cancer types as follows: prostate cancer: PC-3 (D) and DU-145 (I); renal cancer: ACHN (D) and 7860-O (I); lung cancer: H266 (D) and H522 (I); ovarian cancer: OVCAR-3 (D) and OVCAR-8 (I); and breast cancer: MCF7 (D), MDA-MB-231 (I), and HCC1937 […]. Modified HR repair assay was performed by transfecting cells with DRGFP DSB substrate plasmid and I-SceI plasmid through electroporation at 270V, 975uF using a BioRad genepulsar II. Flow cytometry analysis was performed 48 to 72 hours later to detect GFP-positive cells. […] (B-D) Colony formation assay was performed with the indicated concentrations of olaparib (B) or rucaparib (C), or (D) cell lines were seeded in 96-well plates, treated with olaparib at the indicated concentrations for 5 days, and then analyzed by MTT assay. […]
Cell Proliferation Assay. Cell proliferation was measured by MTT (3-(4,5-dimethylthiazol-2-yl)-2,5-diphenyltetrazolium bromide; Sigma) reduction. […] Plates were read at 490 nm and 650 nm (background) in a microplate reader (Molecular Devices). After subtraction of background, the cell viability was calculated as fold change relative to control cells. The OD values were analyzed with Graphpad Prism 6.0 software. […]

[4] = test system: breast cancer patients with BRCA1/2 mutations; conditions: phase II; cited from earlier work
BRCA mutation carriers = conditions: phase I, oral monotherapy; cited from earlier work
HCC1937 cells = assay: Apoptosis analysis; assay type: cell-based, human; conditions: olaparib plus TTK inhibitor, 48 hours
Procedure: FIGS. 14A-B. TTK inhibitor enhances apoptosis induced by PARP inhibitor. (A) TTK expression levels in basal-like or luminal breast cancer cell lines and immortal human mammalian epithelial cells. Cell lysates were harvested from indicated cell lines and subjected to Western blot analysis. (B) HCC1937 cells were treated with olaparib, or combined with TTK inhibitor AZ3146 for 48 hours and subjected to apoptosis analysis. Each value represents the mean±SD from three independent experiments.

CCNC(=O)c1noc(-c2cc(C(C)C)c(O)cc2O)c1-c1ccc(CN2CCOCC2)cc1 [AUY922]
synergistic effect on PARP inhibitor treatment (HCC1937; MTT): synergistic effect | synergy compared with vorinostat combinations (HCC1937; combinations with PARP inhibitors): relatively higher synergy

O=C(c1cc(Cc2n[nH]c(=O)c3ccccc23)ccc1F)N1CCN(C(=O)C2CC2)CC1 [olaparib]
objective response rate [1]: 33% | sensitization by BRCA1-PTEN double knockdown (MCF-10A cells; MCF-10A double knockdown cells): did not sensitize cells | cellular sensitivity of BRCA1-, RAD51- and BRIT1-deficient cells (MCF-10A cells; MCF-10A knockdown vs control cells, 10-15 days): greatly increased cellular sensitivity | sensitization by BRCA1 or PTEN deficiency (MCF-10A cells; MCF-10A single knockdown cells): sensitized cells | complete or partial responses [2]: no complete or partial responses | sensitivity of cell lines with the HRD gene signature compared with cell lines with intact HR repair [3]: more sensitive | response rate [4]: 41% | BRCA mutation carriers that did not respond (BRCA mutation carriers): more than 35%

CNCc1ccc(-c2[nH]c3cc(F)cc4c3c2CCNC4=O)cc1 [rucaparib]
sensitivity of cell lines with the HRD gene signature compared with cell lines with intact HR repair [3]: more sensitive

AZ3146
apoptosis (HCC1937 cells): enhanced olaparib-induced apoptosis
